Assay [1] has as its system S. aureus ATCC 10390. Briefly: Estimated MIC, solution-phase microdilution absorbance assay with crude macroarray spot stock solutions. In kind it is cell-based, Staphylococcus aureus. The conditions noted are these: for inhibition of S. aureus at the 12.5 μM level: macroarray stock solutions diluted four fold; for MIC: Staphylococcus aureus, ATCC10390, 12 h. How it is done: Spots from a new 69 member chalcone macroarray as well as the three heterocyclic macroarrays prepared earlier were punched out, cleaved, and eluted with acetonitrile. The resulting solutions were concentrated to a residue that was taken up in DMSO to form 2 mM stock solutions.
From the stock solutions, microdilution assays in a 96 well plate starting at 50 μM were performed in quadruplicate. Each well contained 5 μL of the stock solution as well as 195 μL of a S. aureus culture. The turbidity of each well was measured after incubating 12 hours using a standard plate reader. Active compounds can be further diluted and the assay repeated.
To acquire more quantitative antibacterial activity data about our compounds and verify our on-support assay results, we performed solution-phase absorbance assays that provided estimates of the minimum inhibitory concentration (MIC) of each macroarray member against S. aureus. Stock solutions (ca. 2 mM) were generated by cleaving and eluting 198 individual compounds from chalcone (3) and heterocyclic macroarrays (5, 7, and 8). […] The good overall purities of the crude macroarray compounds allowed for reasonable estimations of MICs.
(§1) For estimated MIC determination, DMSO was added to the dried compound residue obtained from a single spot to afford ca. 100 μL of a 2 mM stock solution. Aliquots (5 μL) of these solutions were added to a 96-well plate, followed by 195 μL of diluted S. aureus 10390 (10^6 CFUs/mL) to yield ca. 50 μM final concentrations. The plates were swirled for 1 h to ensure compound dissolution, incubated for 12 h at 37° C., and the absorbance at 595 nm was recorded using a plate reader. […] Actual MIC values were determined for lead compounds resynthesized in solution using an analogous procedure with solutions of known concentration (see).
Preparation of spot samples and controls. An aliquot of DMSO (ca. 100 μL depending on the loading of the parent hydroxyacetophenone) was added to the dried compound residue obtained after TFA cleavage and elution from a single spot. This afforded a 2.0 mM “spot stock” solution for each spot. A small aliquot of each “spot stock” solution was saved for subsequent LC-MS analysis.
For estimated MIC screens, 5.0 μL portions of the “spot stock” solutions were added to the appropriate wells in a sterile, polystyrene 96-well plate to yield ca. 50 μM solutions (dependent on the initial loading of hydroxyacetopheneone and compound purity). To the positive and negative control wells, 5.0 μL of DMSO were added (positive controls contained bacteria but no compound, while negative controls had neither compound nor bacteria). All estimated MIC assays were performed in quadruplicate. Note: the MIC value is defined as the lowest concentration where no bacterial growth occurs.
Representative estimated MIC assay procedure. This assay procedure is based in part on the method reported by Strøm et al.^xiii A 400 μL portion of overnight S. aureus 10390 culture was diluted with 100 mL of sterile LB broth to give ca. 10^6 CFUs per mL. Aliquots (195 μL) of this solution were added to all of the wells in a sterile 96-well plate (except for the negative control wells; 195 μL of sterile LB broth were added to these wells). The plates were placed on an orbital shaker table and gently swirled for 1 h to ensure compound dissolution, and then incubated (without shaking) for 12 h at 37° C. The absorbance at 595 nm was recorded using a plate reader.
The original “spot stock” solutions of these compounds were diluted with DMSO to give ca. 25 and 13 μM final concentrations and tested for inhibitory activities using the procedure described above.

Assay [2] relates to S. aureus ATCC 10390. Nature of the assay: MIC determination with authentic compounds resynthesized in solution. In kind it is cell-based, Staphylococcus aureus. Also on record: MIC against S. aureus 10390: unit: uM. Particulars: for MIC: Staphylococcus aureus, ATCC10390; for MIC against S. aureus 10390: values quoted in killing-curve protocol, unit not given. Here is the method:
as §1
(§2) Dose response growth inhibition curves were determined for each active compound (resynthesized in solution) against S. aureus 10390 (SA) and methicillin-resistant S. aureus 33591 (MRSA). […] MIC assays were performed in quadruplicate.

For assay [3], the system named is Methicillin-resistant S. aureus ATCC 33591 (MRSA). Described as above. In kind it is cell-based. Particulars: Staphylococcus aureus; Table 3; authentic sample, only trans isomers of chalcones; error reflects step size in the serial dilutions. Here is the method: as §1, §2
The test system of assay [4] is B. subtilis subsp. spizizenii ATCC 6633. Briefly: MIC determination, species selectivity. In kind it is cell-based. The conditions noted are these: Bacillus subtilis, ATCC6633; authentic sample, only trans isomers of chalcones; error reflects step size. How it is done: (§3) Each compound from Table 3 was tested for inhibitory activity at 2.5, 5, 7.5, 10, 15, 20, 25, and 30 μM in the susceptible overlaid strains: B. subtilis ATCC 6633, S. epidermidis ATCC 12228, and K. pneumoniae ATCC 4352. MIC assays were run in quadruplicate as described above (with shaking).

Assay [5] relates to S. epidermidis ATCC 12228. Nature of the assay: MIC determination, species selectivity. The conditions noted are these: Staphylococcus epidermidis, ATCC12228; authentic sample, only trans isomers of chalcones; error reflects step size. It is filed as cell-based. How it is done: as §3
The subject of another assay is S. aureus 10390. Briefly: Time-dependent bacterial killing curves. The conditions noted are these: 0.5x to 4x MIC, 0-6 h. In kind it is cell-based, Staphylococcus aureus. How it is done: Solutions of compounds 4Bv, 6Ao, 9Cf, and linezolid were prepared in DMSO over a range of concentrations. […] At 0, 2, 4, and 6 h time points, […] samples were withdrawn from the test tubes, diluted into 10 mL of LB broth in a test tube, and swabbed in duplicate on agar plates to determine CFUs. These plates were incubated at 37° C. for 24 h, after which time the colonies were counted visually. […] Instead, 200 μL was removed from the test tube and directly swabbed on the agar plates.

Assay [6] deals with S. aureus ATCC 10390. Briefly: Kirby-Bauer disk diffusion assay on compound spots from cleaved macroarray. In kind it is cell-based, Staphylococcus aureus. The conditions noted are these: loadings 30 μg/spot, 18 h incubation. How it is done:
While the heterocyclic libraries were being synthesized, the chalcone macroarrays were analyzed using various direct assay techniques such as the Kirby-Bauer disk diffusion assay (FIG. 2E). Bauer, A. W.; Kirby, […].; Turck, M. Technical Bulletin of the Registry of Medical Technologists 1966, 36, 49-52. For this assay, the macroarray members are punched out from the membrane, cleaved from the support with TFA vapor, neutralized with ammonia vapor, and then placed on an agar bed inoculated with S. aureus. After incubating overnight, different diameters of zones of inhibition are measured as a factor of potency as well as solubility in the medium. Ammonia vapor neutralization was key in the disk diffusion assay, otherwise residual TFA vapor created a false positive signature. However, in this method, macroarrays have to be made in triplicate one for a replicate and one for compound characterization. We first evaluated test chalcone macroarrays (3) in antibacterial assays against S. aureus. Because the macroarrays were prepared on cellulose filter paper, we had convenient access to the compounds in disk form for standard disk diffusion assays. Compound spots were punched out of the macroarrays, subjected to vapor phase cleavage with acid (TFA), and neutralized (NH3) to afford disks containing ca. 30 μg of adsorbed compound [8]. These disks were manually placed on lawns of S. aureus, and zones of inhibition were measured after an 18 h incubation period. […] However, this antibacterial assay format had drawbacks: (1) the entire sample of compound was consumed during the assay, and thus replicate arrays needed to be synthesized to confirm activity, and (2) manipulating large numbers of compound disks was relatively labor intensive. Compound spots were cleaved with TFA and neutralized with NH3 as described herein. […] Compound spots were placed onto the agar, the plate was incubated at 37° C. for 18 h, and the diameters of the zones of inhibition were measured. […] Compound spots were subjected to the TFA cleavage conditions described above. The spots were next subjected to NH3 vapor to neutralize any remaining TFA. […] Vials containing the spots (or intact macroarrays) were placed inside a small evaporating dish, and this was placed into the NH4OH solution. The Pyrex dish was covered, and NH3 vapor was allowed to slowly diffuse into the vials. After 1 h, the vials were removed from the NH3 chamber, and the spots were allowed to stand open in a fume hood for at least 15 min to vent prior to analysis in the following assays. This afforded dry, paper disks containing adsorbed compound. […] The plates were removed, and the diameters of the zones of inhibition were measured in mm using a ruler (see FIG. 1A).

[7] abbreviates: Table 2, serial dilution of stock solutions obtained by SPOT-synthesis, read-out: estimated MIC range.
Setting [8] is: Table 3, serial dilution of spot stock solutions of crude macroarray compounds, read-out: S. aureus Estimated MIC range.
Where [9] appears, read: Table 2, authentic sample synthesized according to standard techniques, read-out: observed MIC.
[10] abbreviates: Table 3, authentic sample, only trans isomers of chalcones, error reflects step size in the serial dilutions, read-out: S. aureus MIC.

In brackets after ≈: the same amount, converted by molar mass.

With `Cc1nc(-c2ccc(O)cc2)cc(-c2c(Cl)ccc(Cl)c2Cl)c1C#N` [Compound 6Ao, 6-(4-hydroxyphenyl)-2-methyl-4-(2,3,6-trichlorophenyl)-3-cyanopyridine], in the assay on S. aureus ATCC 10390 [1], the “inhibition of S. aureus at the 12.5 μM level” value is on record as “complete inhibition”. In addition, the minimal inhibitory concentration (MIC) (usually the smallest concentration in the dilution series that meets the test's criterion for growth inhibition) is 6.25 to 12.5 µM (≈ 2.44 to 4.87 µg/mL) in the assay with S. aureus ATCC 10390 [1] (setting [7]); < 12.5 µM with S. aureus ATCC 10390 [1] (setting [8]); 6 ± 0.5 µM (≈ 2.34 µg/mL) in the assay with S. aureus ATCC 10390 [2] (setting [9]); 7.5 ± 1.2 µM (≈ 2.92 µg/mL) with S. aureus ATCC 10390 [2] (setting [10]); 7.5 ± 1.2 µM (≈ 2.92 µg/mL) in assay [3]; 3.8 ± 1.2 µM (≈ 1.48 µg/mL) in assay [4]. This compound also gave an MIC in assay [5] of 6.3 ± 1.2 µM (≈ 2.45 µg/mL). In addition, the “MIC against S. aureus 10390” value against S. aureus ATCC 10390 [2] is listed as ~7.5. Also, in the assay with S. aureus 10390, the “mode of activity (bacteriostatic or bactericidal)” value (shortened to “mode of activity”) was “bactericidal”.

`Cc1nc(-c2cccc(O)c2)cc(-c2ccc(Cl)cc2Cl)c1C#N` [Compound 6Bt, 4-(2,4-dichlorophenyl)-6-(3-hydroxyphenyl)-2-methyl-3-cyanopyridine]: the “inhibition of S. aureus at the 12.5 μM level” value in the assay with S. aureus ATCC 10390 [1] is given as “complete inhibition”. In addition, the minimum inhibitory concentration (MIC) in the assay on S. aureus ATCC 10390 [1] (setting [7]) is 6.25 to 12.5 µM (≈ 2.22 to 4.44 µg/mL); in the assay with S. aureus ATCC 10390 [1] (setting [8]), < 12.5 µM; in the assay on S. aureus ATCC 10390 [2] (setting [9]), 10 ± 1 µM (≈ 3.55 µg/mL); in the assay with S. aureus ATCC 10390 [2] (setting [10]) it was 11.6 ± 0.9 µM (≈ 4.12 µg/mL); in assay [3], 13.4 ± 0.9 µM (≈ 4.76 µg/mL); in assay [4] it was 22.5 ± 2.5 µM (≈ 7.99 µg/mL). For the same compound, in assay [5], the minimal inhibitory concentration (MIC) was found to be 17.5 ± 2.5 µM (≈ 6.22 µg/mL).

Consider `COc1cc(-c2cc(-c3ccc(Br)cc3)nc(C)n2)ccc1O` [Compound 9Cf, 4-(4-bromophenyl)-6-(4-hydroxy-3-methoxyphenyl)-2-methylpyrimidine], for which the minimal inhibitory concentration (MIC) in the assay on S. aureus ATCC 10390 [1] (setting [8]) was 25 to 50 µM (≈ 9.28 to 18.6 µg/mL); in the assay on S. aureus ATCC 10390 [2] (setting [10]), 32.5 ± 1.2 µM (≈ 12.1 µg/mL); in assay [3] it was 31.2 ± 1.2 µM (≈ 11.6 µg/mL); in assay [4], 17.5 ± 2.5 µM (≈ 6.5 µg/mL); in assay [5] it was > 30 µM. Also, the “MIC against S. aureus 10390” value in the assay on S. aureus ATCC 10390 [2] is given as ~32.5. Moreover, in the assay with S. aureus 10390, the “mode of activity” value is recorded as “bacteriostatic”.

Regarding `CC(=O)NC[C@H]1CN(c2ccc(N3CCOCC3)c(F)c2)C(=O)O1` [Linezolid, linezolid, reference compound], the values for the minimal inhibitory concentration (MIC) (in the assay with S. aureus ATCC 10390 [2] (setting [9]); in the assay on S. aureus ATCC 10390 [2] (setting [10]); in assay [3]) were 6 ± 0.5 µM (≈ 2.02 µg/mL), 10 ± 1 µM (≈ 3.37 µg/mL) and 8 ± 1 µM (≈ 2.7 µg/mL), respectively. Further, the “MIC against S. aureus 10390” value against S. aureus ATCC 10390 [2] is ~10.0. Moreover, the “mode of activity” value in the assay on S. aureus 10390 is reported as “bacteriostatic”.

As for `CN[C@H](CC(C)C)C(=O)N[C@H]1C(=O)N[C@@H](CC(N)=O)C(=O)N[C@H]2C(=O)N[C@H]3C(=O)N[C@H](C(=O)N[C@H](C(=O)O)c4cc(O)cc(O)c4-c4cc3ccc4O)[C@H](O)c3ccc(c(Cl)c3)Oc3cc2cc(c3O[C@@H]2O[C@H](CO)[C@@H](O)[C@H](O)[C@H]2O[C@H]2C[C@](C)(N)[C@H](O)[C@H](C)O2)Oc2ccc(cc2Cl)[C@H]1O` [vancomycin, reference compound], the Zones of inhibition with S. aureus ATCC 10390 [6] was determined as 20 mm.

Values taken from patent US8227616B2, “Cyanopyridine antibacterial agents and methods of use thereof” (Wisconsin Alumni Research Foundation, priority 2006, dated 2012).
